Experimental findings from US11986471B2, “Compounds and methods of use” (Tango Therapeutics, Inc., priority 2018, dated 2024) are described below.

For experiment [1], the target named is T1, PRMT5 (Homo sapiens, UniProt O14744).
T1 construct: purchased Viva (custom protein)
As to the kind of experiment: PRMT5 IC50 assay in the presence of SAM as cofactor. In kind it is biochemical. Put shortly:
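Potency against PRMT5 is compared across cofactor states, where IC50 equals Ki×1.5 with SAM present and Ki×13.5 with MTA present.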

Experiment [2] concerns the target T1, PRMT5. Briefly: PRMT5 IC50 assay with no cofactor. Type of experiment: biochemical. The conditions noted are these: read-out: No Co-factor IC50. The gist of the method: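 For the SAM-containing format, dividing IC50 by 1.5 yields Ki; for the MTA-containing format the divisor is 13.5. A third format without cofactor gives IC50 alone.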
For experiment [3], the target named is T1, PRMT5. Briefly: PRMT5 IC50 assay in the presence of MTA as cofactor. In kind it is biochemical. As to conditions: for IC50: PRMT5, MTA as cofactor; for SAM/MTA Ratio: ratio between Ki in the presence of SAM and Ki in the presence of MTA. Put shortly: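 Three cofactor conditions tested for PRMT5 inhibition: none, MTA and SAM, each giving an IC50. For conversion to Ki, the MTA-condition IC50 is divided by 13.5 and the SAM-condition IC50 by 1.5, and the two Ki values are expressed as a SAM/MTA ratio.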

The subject of experiment [4] is HAP1 MTAP-intact. Briefly: SDMA in-cell western assay, HAP1 MTAP-intact cell line. As to conditions: Homo sapiens. Type of experiment: cell-based. The gist of the method:
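HAP1 isogenic pair: endogenous MTAP vs MTAP-null. Readout SDMA by in-cell western; IC50 per line. Ratio ≥3 fold = MTAP-selective.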

In experiment [5] the test system is HAP1 MTAP-deleted. As to the kind of experiment: SDMA in-cell western assay, HAP1 MTAP-deleted cell line. As to conditions: for IC50: Homo sapiens, HAP1 MTAP-deleted cell line; for MTAP Intact/Deleted Ratio: IC50 ratio HAP1 MTAP-intact / HAP1 MTAP-deleted. Type of experiment: cell-based. Put shortly: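 IC50 from SDMA in-cell western; HAP1 line lacking MTAP (null), paired isogenically with MTAP-intact HAP1 expressing endogenous MTAP.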

T1 sequence (O14744 whole entry): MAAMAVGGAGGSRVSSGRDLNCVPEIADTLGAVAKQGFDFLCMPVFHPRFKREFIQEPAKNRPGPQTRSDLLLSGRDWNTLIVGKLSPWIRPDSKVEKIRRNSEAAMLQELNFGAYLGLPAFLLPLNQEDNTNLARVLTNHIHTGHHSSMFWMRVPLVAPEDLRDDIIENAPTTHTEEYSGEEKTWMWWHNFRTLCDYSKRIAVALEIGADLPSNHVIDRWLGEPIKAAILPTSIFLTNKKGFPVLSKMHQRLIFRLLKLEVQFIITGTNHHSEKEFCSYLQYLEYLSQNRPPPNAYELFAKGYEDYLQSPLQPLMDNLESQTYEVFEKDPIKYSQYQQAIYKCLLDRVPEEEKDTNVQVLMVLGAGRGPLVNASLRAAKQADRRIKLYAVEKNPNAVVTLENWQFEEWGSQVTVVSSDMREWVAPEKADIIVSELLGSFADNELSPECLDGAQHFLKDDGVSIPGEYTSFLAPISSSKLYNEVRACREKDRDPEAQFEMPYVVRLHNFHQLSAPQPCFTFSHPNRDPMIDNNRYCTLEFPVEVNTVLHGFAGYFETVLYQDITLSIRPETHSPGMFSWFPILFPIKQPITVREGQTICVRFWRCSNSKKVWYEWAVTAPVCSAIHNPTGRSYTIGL
T1 sequence (Q9BQA1 whole entry partner): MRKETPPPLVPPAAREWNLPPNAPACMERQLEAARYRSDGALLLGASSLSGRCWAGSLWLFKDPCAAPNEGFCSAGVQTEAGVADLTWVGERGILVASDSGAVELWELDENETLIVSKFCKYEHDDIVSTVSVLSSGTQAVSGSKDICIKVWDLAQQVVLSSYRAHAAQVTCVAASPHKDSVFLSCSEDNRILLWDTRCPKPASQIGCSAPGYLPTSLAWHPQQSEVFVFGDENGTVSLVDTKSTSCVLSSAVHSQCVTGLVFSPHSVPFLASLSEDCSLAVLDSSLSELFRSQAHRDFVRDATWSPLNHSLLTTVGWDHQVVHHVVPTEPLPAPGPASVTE

For orientation: IC50 means the concentration that gives 50% inhibition. Turning to `CC(=O)N1CCC(Nc2cc(C(=O)NC[C@H](O)CN3CCc4c(ccc(OCc5cn[nH]c5)c4C)C3)ncn2)CC1` [Compound 253, 6-[(1-acetyl-4-piperidyl)amino]-N-[(2S)-2-hydroxy-3-[5-methyl-6-(1H-pyrazol-4-ylmethoxy)-3,4-dihydro-1H-isoquinolin-2-yl]propyl]pyrimidine-4-carboxamide], the IC50 in experiment [1] was in the range of 500 to 5000 nM; in experiment [2], 500 to 5000 nM; in experiment [3] it was 50 to 500 nM; in experiment [4] it was 1000 to 10000 nM; in experiment [5], 1000 to 10000 nM. In addition, in experiment [3], the “SAM/MTA Ratio” value is “A (a Ki ratio greater than or equal to 10 fold between the Ki in the presence of SAM and the Ki in the presence of MTA)”. Also, the “MTAP Intact/Deleted Ratio” value in experiment [5] is “C* (an IC50 ratio of less than 3 fold between the IC50 in the HAP1 MTAP-intact cell line and the HAP1 MTAP-deleted cell line)”.
Turning to `Cc1c(OCc2cn[nH]c2)ccc2c1CCN(C[C@@H](O)CNC(=O)c1ccnc(NC3CCC3)c1)C2` [Compound 254, 2-(cyclobutylamino)-N-[(2S)-2-hydroxy-3-[5-methyl-6-(1H-pyrazol-4-ylmethoxy)-3,4-dihydro-1H-isoquinolin-2-yl]propyl]pyridine-4-carboxamide], the half-maximal inhibitory concentration (IC50) in experiment [1] lay within 500 to 5000 nM; in experiment [2], 500 to 5000 nM; in experiment [3] it was 50 to 500 nM; in experiment [4], 1000 to 10000 nM; in experiment [5], 1000 to 10000 nM. In addition, the “SAM/MTA Ratio” value in experiment [3] is “A (a Ki ratio greater than or equal to 10 fold between the Ki in the presence of SAM and the Ki in the presence of MTA)”. Also, the “MTAP Intact/Deleted Ratio” value in experiment [5] is “C* (an IC50 ratio of less than 3 fold between the IC50 in the HAP1 MTAP-intact cell line and the HAP1 MTAP-deleted cell line)”.
On to `O=C(NC[C@H](O)CN1CCc2c(ccc(OCc3cnco3)c2Br)C1)c1ccnc(NC2CCC2)c1` [Compound 255, N-[(2S)-3-[5-bromo-6-(oxazol-5-ylmethoxy)-3,4-dihydro-1H-isoquinolin-2-yl]-2-hydroxy-propyl]-2-(cyclobutylamino)pyridine-4-carboxamide], for which the IC50 in experiment [1] is 500 to 5000 nM; in experiment [2], not below 5000 nM; in experiment [3], 50 to 500 nM; in experiment [4] it was not below 10000 nM; in experiment [5], not below 10000 nM. Also, the “SAM/MTA Ratio” value in experiment [3] is “A (a Ki ratio greater than or equal to 10 fold between the Ki in the presence of SAM and the Ki in the presence of MTA)”. Besides, in experiment [5], the “MTAP Intact/Deleted Ratio” value was “C* (an IC50 ratio of less than 3 fold between the IC50 in the HAP1 MTAP-intact cell line and the HAP1 MTAP-deleted cell line)”.
On to `CC(=O)N1CCC(Nc2cc(C(=O)NC[C@H](O)CN3CCc4c(ccc(OCc5ocnc5C)c4Cl)C3)ncn2)CC1` [Compound 256, (S)-6-((1-acetylpiperidin-4-yl)amino)-N-(3-(5-chloro-6-((4-methyloxazol-5-yl)methoxy)-3N-dihydroisoquinolin-2(1H)-yl)-2-hydroxypropyl)pyrimidine-4-carboxamide], for which the IC50 in experiment [1] is 50 to 500 nM; in experiment [2], not below 5000 nM; in experiment [3], 50 to 500 nM; in experiment [4], not below 10000 nM; in experiment [5], 1000 to 10000 nM. The “SAM/MTA Ratio” value in experiment [3] was “A (a Ki ratio greater than or equal to 10 fold between the Ki in the presence of SAM and the Ki in the presence of MTA)”. Also, the “MTAP Intact/Deleted Ratio” value in experiment [5] was “C* (an IC50 ratio of less than 3 fold between the IC50 in the HAP1 MTAP-intact cell line and the HAP1 MTAP-deleted cell line)”.
`CC(=O)N1CCC(Nc2cc(C(=O)NC[C@H](O)CN3CCc4cc(OCc5cnn[nH]5)ccc4C3)ncn2)CC1` [Compound 257, (S)—N-(3-(6-((1H-1,2,3-triazol-5-yl)methoxy)-3,4-dihydroisoquinolin-2(1H)-yl)-2-hydroxypropyl)-6-((1-acetylpiperidin-4-yl)amino)pyrimidine-4-carboxamide]: the IC50 in experiment [1] was 500 to 5000 nM; in experiment [2], not below 5000 nM; in experiment [3] it was 50 to 500 nM; in experiment [4], not below 10000 nM; in experiment [5], 1000 to 10000 nM. In addition, the “SAM/MTA Ratio” value in experiment [3] was “A (a Ki ratio greater than or equal to 10 fold between the Ki in the presence of SAM and the Ki in the presence of MTA)”. In addition, the “MTAP Intact/Deleted Ratio” value in experiment [5] is “C* (an IC50 ratio of less than 3 fold between the IC50 in the HAP1 MTAP-intact cell line and the HAP1 MTAP-deleted cell line)”.
Turning to `O=C(NC[C@H](O)CN1CCc2c(ccc(OCc3cnco3)c2I)C1)c1ccnc(NC2CCC2)c1` [Compound 258, 2-(cyclobutylamino)-N-[(2S)-2-hydroxy-3-[5-iodo-6-(oxazol-5-ylmethoxy)-3,4-dihydro-1H-isoquinolin-2-yl]propyl]pyridine-4-carboxamide], the IC50 in experiment [1] was 500 to 5000 nM; in experiment [2] it was not below 5000 nM; in experiment [3] it was 500 to 5000 nM; in experiment [4] it was not below 10000 nM; in experiment [5], not below 10000 nM. Moreover, in experiment [3], the “SAM/MTA Ratio” value was “A (a Ki ratio greater than or equal to 10 fold between the Ki in the presence of SAM and the Ki in the presence of MTA)”. Besides, the “MTAP Intact/Deleted Ratio” value in experiment [5] is “C* (an IC50 ratio of less than 3 fold between the IC50 in the HAP1 MTAP-intact cell line and the HAP1 MTAP-deleted cell line)”.
Take `O=C(NC[C@H](O)CN1CCc2cc(OCc3cnco3)ccc2C1)c1cccc(NC2CCC2)c1` [Compound 259, (S)-3-(cyclobutylamino)-N-(2-hydroxy-3-(6-(oxazol-5-ylmethoxy)-3,4-dihydroisoquinolin 2(1H)-yl)propyl)benzamide]: the IC50 in experiment [1] is 500 to 5000 nM; in experiment [2], not below 5000 nM; in experiment [3] it was 500 to 5000 nM; in experiment [4], less than 1000 nM; in experiment [5], less than 1000 nM. Also, the “SAM/MTA Ratio” value in experiment [3] was “A (a Ki ratio greater than or equal to 10 fold between the Ki in the presence of SAM and the Ki in the presence of MTA)”. Besides, the “MTAP Intact/Deleted Ratio” value in experiment [5] was “C* (an IC50 ratio of less than 3 fold between the IC50 in the HAP1 MTAP-intact cell line and the HAP1 MTAP-deleted cell line)”.
For `Cc1cc(OCc2cnco2)cc2c1CN(C[C@@H](O)CNC(=O)c1ccnc(NC3CCC3)c1)CC2` [Compound 260, 2-(cyclobutylamino)-N-[(2S)-2-hydroxy-3-[8-methyl-6-(oxazol-5-ylmethoxy)-3,4-dihydro-1H-isoquinolin-2-yl]propyl]pyridine-4-carboxamide], the IC50 in experiment [1] is 500 to 5000 nM; in experiment [2], not below 5000 nM; in experiment [3], 500 to 5000 nM; in experiment [4] it was 1000 to 10000 nM; in experiment [5], 1000 to 10000 nM. In experiment [3], the “SAM/MTA Ratio” value was “A (a Ki ratio greater than or equal to 10 fold between the Ki in the presence of SAM and the Ki in the presence of MTA)”. Also, in experiment [5], the “MTAP Intact/Deleted Ratio” value is “C* (an IC50 ratio of less than 3 fold between the IC50 in the HAP1 MTAP-intact cell line and the HAP1 MTAP-deleted cell line)”.
For the molecule `CC(=O)N1CCC(Nc2cc(C(=O)NC[C@H](O)CN3CCc4c(ccc(OCc5cn[nH]c5)c4Cl)C3)ncn2)CC1` [Compound 261, 6-[(1-acetyl-4-piperidyl)amino]-N-[(2S)-3-[5-chloro-6-(1H-pyrazol-4-ylmethoxy)-3,4-dihydro-1H-isoquinolin-2-yl]-2-hydroxy-propyl]pyrimidine-4-carboxamide], the IC50 in experiment [1] was 50 to 500 nM; in experiment [2], 500 to 5000 nM; in experiment [3] it was 50 to 500 nM; in experiment [4], less than 1000 nM; in experiment [5], 1000 to 10000 nM. Also, the “SAM/MTA Ratio” value in experiment [3] was “A (a Ki ratio greater than or equal to 10 fold between the Ki in the presence of SAM and the Ki in the presence of MTA)”. The “MTAP Intact/Deleted Ratio” value in experiment [5] was “C* (an IC50 ratio of less than 3 fold between the IC50 in the HAP1 MTAP-intact cell line and the HAP1 MTAP-deleted cell line)”.
